In ChEMBL document CHEMBL3396965, “Peptide inhibitors of the Escherichia coli DsbA oxidative machinery essential for bacterial virulence” (J Med Chem, 2015):
Calls of active or inactive are those of the source. No cut-off for these calls is given here. Square brackets hold non-standard residues; d marks the D form. Peptide text beside a SMILES is read from it. Dip = N[C@H](C(=O)O)C(c1ccccc1)c1ccccc1; hPhe = N[C@@H](CCc1ccccc1)C(=O)O; Tic = O=C(O)[C@@H]1Cc2ccccc2CN1; Pip = O=C(O)[C@@H]1CCCCN1; hSer = N[C@@H](CCO)C(=O)O; Nva = CCC[C@H](N)C(=O)O

Tests used:
[1] = molecular target: T1, Thiol:disulfide interchange protein DsbA (Escherichia coli (strain K12), UniProt P0AEG4); assay: Binding affinity to oxidized Escherichia coli DsbA by isothermal titration calorimetry assay
T1 sequence (P0AEG4 whole entry): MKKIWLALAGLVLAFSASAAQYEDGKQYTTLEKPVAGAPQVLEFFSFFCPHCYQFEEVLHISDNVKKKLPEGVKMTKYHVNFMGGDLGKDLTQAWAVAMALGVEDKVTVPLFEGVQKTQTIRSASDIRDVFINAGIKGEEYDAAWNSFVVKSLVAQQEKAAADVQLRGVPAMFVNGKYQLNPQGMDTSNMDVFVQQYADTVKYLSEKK

[2] = molecular target: T2, Thioredoxin reductase 1, cytoplasmic (Homo sapiens) (UniProt Q16881); assay: Inhibition of oxidized human TXR1 reductase activity by insulin reduction assay
T2 sequence (whole entry): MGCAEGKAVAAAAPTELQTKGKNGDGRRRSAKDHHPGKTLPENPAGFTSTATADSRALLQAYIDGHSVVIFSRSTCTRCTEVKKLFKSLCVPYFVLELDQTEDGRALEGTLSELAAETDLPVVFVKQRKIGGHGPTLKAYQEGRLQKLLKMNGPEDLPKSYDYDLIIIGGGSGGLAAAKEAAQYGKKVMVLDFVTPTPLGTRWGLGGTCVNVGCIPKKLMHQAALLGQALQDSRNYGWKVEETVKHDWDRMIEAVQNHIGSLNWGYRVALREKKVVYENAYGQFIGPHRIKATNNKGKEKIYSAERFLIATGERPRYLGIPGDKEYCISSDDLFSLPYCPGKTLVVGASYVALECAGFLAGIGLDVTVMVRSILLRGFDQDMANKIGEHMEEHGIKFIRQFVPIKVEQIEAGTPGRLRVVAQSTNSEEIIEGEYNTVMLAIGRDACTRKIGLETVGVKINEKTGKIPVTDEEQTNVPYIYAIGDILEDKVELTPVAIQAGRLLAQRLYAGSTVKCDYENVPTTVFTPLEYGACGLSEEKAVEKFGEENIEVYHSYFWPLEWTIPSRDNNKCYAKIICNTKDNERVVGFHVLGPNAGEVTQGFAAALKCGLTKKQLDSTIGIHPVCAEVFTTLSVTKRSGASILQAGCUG

[3] = molecular target: T3, Thiol:disulfide interchange protein DsbA (Escherichia coli (strain K12)) (UniProt P0AEG4); assay: Binding affinity to Escherichia coli DsbA assessed as change in melting temperature at 250 uM by Thermal shift assay
T3 sequence (whole entry): T1 sequence (P0AEG4 whole entry)

[4] = molecular target: T3, Thiol:disulfide interchange protein DsbA (Escherichia coli (strain K12)); assay: Binding affinity to Escherichia coli DsbA assessed as change in melting temperature at 1 mM by Thermal shift assay
[5] = molecular target: T3, Thiol:disulfide interchange protein DsbA (Escherichia coli (strain K12)); assay: Binding affinity to Escherichia coli DsbA assessed as change in melting temperature at 2 mM by Thermal shift assay
[6] = molecular target: T3, Thiol:disulfide interchange protein DsbA (Escherichia coli (strain K12)); assay: Binding affinity to Escherichia coli DsbA assessed as change in melting temperature at 500 uM by Thermal shift assay
[7] = molecular target: T3, Thiol:disulfide interchange protein DsbA (Escherichia coli (strain K12)); assay: Binding affinity to Escherichia coli DsbA assessed as change in melting temperature at 4 mM by Thermal shift assay
[8] = molecular target: T3, Thiol:disulfide interchange protein DsbA (Escherichia coli (strain K12)); assay: Binding affinity to Escherichia coli DsbA assessed as change in melting temperature at 125 uM by Thermal shift assay

Compound	Kd ([1]; read-out: Kd) [µM]	Kd [1]	other results
Ac-PSPWATC-NH2	18	–	–
CC(=O)N1CCC[C@H]1C(=O)N[C@@H](Cc1c[nH]c2ccccc12)C(=O)N[C@@H](C)C(=O)N[C@H](C(=O)N[C@@H](CS)C(=O)N[C@@H](CC(=O)O)C(=O)N[C@@H](CO)C(N)=O)[C@@H](C)O	–	–	inhibition [2]: inactive
CC(=O)N1CCC[C@H]1C(=O)N[C@@H](CCc1ccccc1)C(=O)N[C@@H](C)C(=O)N[C@H](C(=O)N[C@@H](CS)C(=O)N[C@@H](CC(=O)O)C(=O)N[C@@H](CO)C(N)=O)[C@@H](C)O (Ac-P[hPhe]ATCDS-NH2)	8.3	–	–
Ac-PSPWATVDF-NH2	–	Not Active	–
Ac-PSPWATCDF-NH2	2.9	–	–
Ac-PSPAATCDF-NH2	5.8	–	–
CC(=O)N1CCC[C@H]1C(=O)N[C@@H](CO)C(=O)N1CCC[C@H]1C(=O)N[C@@H](Cc1c[nH]c2ccccc12)C(=O)N[C@@H](C)C(=O)N[C@H](C(=O)N[C@@H](CCO)C(N)=O)[C@@H](C)O (Ac-PSPWAT[hSer]-NH2)	–	Not Active	–
CC(=O)N1CCC[C@H]1C(=O)N[C@@H](CO)C(=O)N1CCCC[C@H]1C(=O)N[C@@H](Cc1c[nH]c2ccccc12)C(=O)N[C@@H](C)C(=O)N[C@H](C(=O)N[C@@H](CS)C(N)=O)[C@@H](C)O (Ac-PS[Pip]WATC-NH2)	12	–	–
Ac-PSPWATN-NH2	–	Not Active	–
Ac-SPWATCDF-NH2	2.2	–	–
Ac-PSPWATSDF-NH2	–	Not Active	–
CC(=O)N1CCC[C@H]1C(=O)N[C@@H](CO)C(=O)N1CCC[C@H]1C(=O)N[C@@H](CCc1ccccc1)C(=O)N[C@@H](C)C(=O)N[C@H](C(=O)N[C@@H](CS)C(N)=O)[C@@H](C)O (Ac-PSP[hPhe]ATC-NH2)	14.9	–	–
Ac-PSPWATCD-NH2	10.7	–	–
Ac-PSPWATCDA-NH2	4.4	–	–
Ac-PSPWAACDF-NH2	11.3	–	–
Ac-PSPWATADF-NH2	–	Not Active	–
Ac-PFATCDF-NH2	5.9	–	–
CCC[C@H](NC(=O)[C@@H](NC(=O)[C@H](C)NC(=O)[C@H](Cc1c[nH]c2ccccc12)NC(=O)[C@@H]1CCCN1C(=O)[C@H](CO)NC(=O)[C@@H]1CCCN1C(C)=O)[C@@H](C)O)C(N)=O (Ac-PSPWAT[Nva]-NH2)	–	Not Active	–
Ac-PWATSDS-NH2	–	Not Active	ΔTm [3]: 0.2 °C; ΔTm [4]: 0.6 °C; ΔTm [5]: 1.5 °C; ΔTm [6]: 0.2 °C; ΔTm [7]: 2.9 °C; ΔTm [8]: 0.1 °C
CC(=O)N1CCC[C@H]1C(=O)N[C@@H](CO)C(=O)N1CCC[C@H]1C(=O)N[C@H](C(=O)N[C@@H](C)C(=O)N[C@H](C(=O)N[C@@H](CS)C(N)=O)[C@@H](C)O)C(c1ccccc1)c1ccccc1 (Ac-PSP[Dip]ATC-NH2)	9.7	–	–
Ac-PWATCDF-NH2	3	–	–
Ac-PAPWATCDF-NH2	2.8	–	–
CC(=O)N1CCC[C@H]1C(=O)N[C@@H](CO)C(=O)N1Cc2ccccc2C[C@H]1C(=O)N[C@@H](Cc1c[nH]c2ccccc12)C(=O)N[C@@H](C)C(=O)N[C@H](C(=O)N[C@@H](CS)C(N)=O)[C@@H](C)O (Ac-PS[Tic]WATC-NH2)	13.1	–	–
Ac-PFATCDS-NH2	13.1	–	ΔTm [3]: 1.7 °C; ΔTm [4]: 5.3 °C; ΔTm [5]: 7.2 °C; ΔTm [6]: 3.3 °C; ΔTm [7]: 9 °C; ΔTm [8]: 0.6 °C
Ac-PSAWATCDF-NH2	5.5	–	–
Ac-ASPWATCDF-NH2	2.7	–	–
Ac-PSPWATCAF-NH2	3.1	–	–
Ac-PSPWATIDF-NH2	–	Not Active	–
Ac-PSPWATM-NH2	–	Not Active	–
